Data from patent US20140107021A1 (priority 2010, published 2014).
Read-outs that look alike come from different tables or passages of the source. Numbered stars: 1 amine (or outer) side, 2 acyl side, 3 side chain; on linkers, the order of the positions; unused ones are H or OH. Square brackets hold non-standard residues; d marks the D form. Side chains are listed from the residue outwards. Ends that are not written are not given here. γGlu = O=C(O)[C@H](CCC(=O)[*:2])N[*:1]; C16 acyl = 16 carbon fatty acyl group; Aib = CC(C)(N)C(=O)O

Legend:
GLP-1 receptor = target: T1, GLP-1 receptor (Homo sapiens, UniProt P43220); assay: cAMP induction at the GLP-1 receptor (agonist activity), firefly luciferase reporter assay in HEK293 cells; type: cell-based
T1 construct: expressed in transfected cells; host or cells: HEK293
Excerpt: (§1) HEK293 cells co-transfected with the receptor and luciferase gene linked to a cAMP responsive element were employed for the bioassay.
(§2) All EC50s and IC50s are reported in the following examples in nM, unless indicated otherwise.

GIP receptor = target: T2, GIP receptor (Homo sapiens, UniProt P48546); assay: cAMP induction at the GIP receptor (agonist activity), luciferase reporter assay in HEK293 cells; type: cell-based; conditions: for EC50: read-out: GIPR EC50
T2 construct: expressed in transfected cells; host or cells: HEK293
T2 sequence (P48546 22-466): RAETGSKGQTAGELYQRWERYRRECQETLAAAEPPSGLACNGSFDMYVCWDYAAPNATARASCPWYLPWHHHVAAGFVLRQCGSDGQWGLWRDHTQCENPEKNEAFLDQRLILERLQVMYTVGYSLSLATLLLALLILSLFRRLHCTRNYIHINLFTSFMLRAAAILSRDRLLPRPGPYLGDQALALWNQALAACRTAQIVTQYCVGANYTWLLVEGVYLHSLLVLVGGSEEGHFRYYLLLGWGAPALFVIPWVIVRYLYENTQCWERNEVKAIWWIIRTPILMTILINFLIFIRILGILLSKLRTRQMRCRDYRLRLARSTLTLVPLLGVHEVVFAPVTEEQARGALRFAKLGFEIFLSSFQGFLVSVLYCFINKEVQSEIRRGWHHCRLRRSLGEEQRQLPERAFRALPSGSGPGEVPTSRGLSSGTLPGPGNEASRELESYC
Excerpt: as §1, §2

[1] = type: in vivo, C57Bl/6 mice; conditions: 30 nmol/kg subcutaneously daily for one week
[2] = Example 10: MT-263 under varied administration regimen in diet-induced obesity mice, 6 day study; type: in vivo, Diet-induced obesity (DIO) mice; conditions: injected on a daily basis (10 nmol/kg), compared with every 2 or 3 days
Experimental: Diet-induced obesity (DIO) mice (N=8, 10 mice per group) were injected during the course of the 6 day study as follows: […]

glucagon receptor = glucagon receptor (Homo sapiens, UniProt P47871); assay: cAMP induction at the glucagon receptor (agonist activity), luciferase reporter assay in HEK293 cells; type: cell-based; parameters: expressed in transfected cells; host or cells: HEK293; conditions: for EC50: read-out: GR EC50
Excerpt: as §1, §2

[3] = Example 8: acylated peptides injected subcutaneously daily for one week into DIO mice; type: in vivo, DIO mice (C57Bl/6 WT); conditions: 10 nmol/kg subcutaneously daily for one week
Experimental: Different doses of acylated peptides comprising a Lys at position 16 and an AIB at position 20 were tested in vivo. […] The mice had been on a high fat diet diet for ˜8 months. Body weight and food intake were measured on days 0, 1, 3, 5, and 7, whereas blood glucose levels were measured on Days 0 and 7 of the experiment. Each test group and control group consisted of 8 mice.

[4] = Table 7, relative to the native ligand of the receptor

T1 sequence (P43220 24-463): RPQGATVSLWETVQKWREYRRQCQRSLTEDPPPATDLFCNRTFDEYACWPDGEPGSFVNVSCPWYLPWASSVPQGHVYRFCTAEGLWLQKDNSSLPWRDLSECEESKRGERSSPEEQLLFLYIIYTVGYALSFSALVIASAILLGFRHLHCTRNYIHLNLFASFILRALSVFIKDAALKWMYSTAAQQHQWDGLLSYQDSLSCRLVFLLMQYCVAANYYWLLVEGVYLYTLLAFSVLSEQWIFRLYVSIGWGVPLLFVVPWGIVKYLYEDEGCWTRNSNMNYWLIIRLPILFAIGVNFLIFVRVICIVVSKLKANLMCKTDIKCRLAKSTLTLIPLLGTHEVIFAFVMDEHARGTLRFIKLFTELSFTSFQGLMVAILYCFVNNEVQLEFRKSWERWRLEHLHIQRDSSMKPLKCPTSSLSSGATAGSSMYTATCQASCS
Chain of glucagon receptor (P47871 26-477): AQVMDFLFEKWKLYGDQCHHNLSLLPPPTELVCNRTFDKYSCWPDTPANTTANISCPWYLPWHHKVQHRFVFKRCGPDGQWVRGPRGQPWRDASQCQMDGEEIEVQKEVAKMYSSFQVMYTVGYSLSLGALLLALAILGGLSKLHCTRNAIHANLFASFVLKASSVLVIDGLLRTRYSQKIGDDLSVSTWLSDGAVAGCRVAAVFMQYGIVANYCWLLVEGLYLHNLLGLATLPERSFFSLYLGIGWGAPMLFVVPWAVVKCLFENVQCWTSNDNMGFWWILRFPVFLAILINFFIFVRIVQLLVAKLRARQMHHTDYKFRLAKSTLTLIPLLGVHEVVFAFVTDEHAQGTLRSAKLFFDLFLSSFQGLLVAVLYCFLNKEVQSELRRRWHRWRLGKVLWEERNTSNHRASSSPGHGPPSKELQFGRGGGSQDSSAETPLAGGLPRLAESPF

| Molecule | EC50 (GLP-1 receptor; Table 3, read-out: GLP-1R EC50) [nM] | EC50 (GIP receptor; Table 3) [nM] | EC50 (GIP receptor; Table 4) [nM] | change in blood glucose levels over the course of the 7-day study [1] | weight loss compared with the Exendin-4-like positive control peptide [1] | weight loss over the course of the 7-day study [1] | decrease in blood glucose levels [2] | EC50 (glucagon receptor; Table 3) [nM] | EC50 (glucagon receptor; Table 4) [nM] | % Relative Activity GLP-1R (GLP-1 receptor; [4]) [%] | % Relative Activity at GIPR (GIP receptor; [4]) [%] | total change in body weight (%) [3] | % Relative Activity at GR (glucagon receptor; [4]) [%] | % Relative Activity GLP-1R (GLP-1 receptor; Table 8) [%] | % Relative Activity at GIPR (GIP receptor; Table 8) [%] | % Relative Activity at GR (glucagon receptor; Table 8) [%] |
| --- | --- | --- | --- | --- | --- | --- | --- | --- | --- | --- | --- | --- | --- | --- | --- | --- |
| CC[C@H](C)[C@H](NC(=O)[C@H](CO)NC(=O)[C@H](Cc1ccc(O)cc1)NC(=O)[C@H](CC(=O)O)NC(=O)[C@H](CO)NC(=O)[C@@H](NC(=O)[C@H](Cc1ccccc1)NC(=O)[C@@H](NC(=O)CNC(=O)[C@H](CCC(=O)O)NC(=O)C(C)(C)NC(=O)[C@@H](N)Cc1ccc(O)cc1)[C@@H](C)O)[C@@H](C)O)C(=O)N[C@@H](Cc1ccc(O)cc1)C(=O)N[C@@H](CC(C)C)C(=O)N[C@@H](CC(=O)O)C(=O)N[C@@H](CCCCN)C(=O)N[C@@H](CCC(N)=O)C(=O)N[C@@H](C)C(=O)N[C@@H](C)C(=O)NC(C)(C)C(=O)N[C@@H](CCC(=O)O)C(=O)N[C@@H](Cc1ccccc1)C(=O)N[C@H](C(=O)N[C@@H](CC(N)=O)C(=O)N[C@@H](Cc1c[nH]c2ccccc12)C(=O)N[C@@H](CC(C)C)C(=O)N[C@@H](CC(C)C)C(=O)N[C@@H](C)C(=O)NCC(=O)NCC(=O)N1CCC[C@H]1C(=O)N[C@@H](CO)C(=O)N[C@@H](CO)C(=O)NCC(=O)N[C@@H](C)C(=O)N1CCC[C@H]1C(=O)N1CCC[C@H]1C(=O)N1CCC[C@H]1C(=O)N[C@@H](CO)C(=O)N[C@@H](CCCCN)C(N)=O)C(C)C [mt-263, Y1Aib2E3I12K16Q17A18Aib20E21N24-LAG27-29-CEX-K] | 0.01 | 0.0054 | 0.0033 | greatest change in blood glucose levels | substantially greater than the Exendin-4-like positive control peptide | significant weight loss | biggest decrease in blood glucose levels | 4.04 | 3.14 | – | – | – | – | – | – | – |
| Q3I7K16AIB20K10(rErE-C16) (Y[Aib]QGTFISDK([γGlu-γGlu-C16 acyl])SIYLDKQAA[Aib]EFVNWLLAGGPSSGAPPPS-NH2) [MT-385] | – | – | – | – | – | – | – | – | – | 3 | 715 | lower change in body weight | 239 | – | – | – |
| Y1Aib2I12K16Q17A18Aib20E21N24-LAG27-29-CEX-K (YXQGTFTSDYSIYLDKQAAXEFVNWLLAGGPSSGAPPPSK; HELM PEPTIDE1{Y.[Aib].Q.G.T.F.T.S.D.Y.S.I.Y.L.D.K.Q.A.A.[Aib].E.F.V.N.W.L.L.A.G.G.P.S.S.G.A.P.P.P.S.K.[am]}$$$$V2.0; N-terminus assumed; SMILES CC[C@H](C)[C@H](NC(=O)[C@H](CO)NC(=O)[C@H](Cc1ccc(O)cc1)NC(=O)[C@H](CC(=O)O)NC(=O)[C@H](CO)NC(=O)[C@@H](NC(=O)[C@H](Cc1ccccc1)NC(=O)[C@@H](NC(=O)CNC(=O)[C@H](CCC(N)=O)NC(=O)C(C)(C)NC(=O)[C@@H](N)Cc1ccc(O)cc1)[C@@H](C)O)[C@@H](C)O)C(=O)N[C@@H](Cc1ccc(O)cc1)C(=O)N[C@@H](CC(C)C)C(=O)N[C@@H](CC(=O)O)C(=O)N[C@@H](CCCCN)C(=O)N[C@@H](CCC(N)=O)C(=O)N[C@@H](C)C(=O)N[C@@H](C)C(=O)NC(C)(C)C(=O)N[C@@H](CCC(=O)O)C(=O)N[C@@H](Cc1ccccc1)C(=O)N[C@H](C(=O)N[C@@H](CC(N)=O)C(=O)N[C@@H](Cc1c[nH]c2ccccc12)C(=O)N[C@@H](CC(C)C)C(=O)N[C@@H](CC(C)C)C(=O)N[C@@H](C)C(=O)NCC(=O)NCC(=O)N1CCC[C@H]1C(=O)N[C@@H](CO)C(=O)N[C@@H](CO)C(=O)NCC(=O)N[C@@H](C)C(=O)N1CCC[C@H]1C(=O)N1CCC[C@H]1C(=O)N1CCC[C@H]1C(=O)N[C@@H](CO)C(=O)N[C@@H](CCCCN)C(N)=O)C(C)C) [MT-280] | – | – | – | significant decrease in blood glucose levels | – | – | – | – | – | – | – | – | – | 225 | 154 | 60 |
